Data from patent US10858335B2 (Rigel Pharmaceuticals, Inc., priority 2014, dated 2020).
pIC50: −log10 of the molar value.

Tested on: GDF8 signaling (p-SMAD-3 (Ser423/425))
Assay: AlphaScreen SureFire SMAD3 (p-Ser423/425) assay, GDF8-stimulated cells (GDF pSMAD)
Type: cell-based
Details: Mus musculus, MPC-11, MPC11; GDF8-stimulated; p-SMAD3 AlphaScreen; read-out: GDF pSMAD (MPC11) (inhibition of GDF8 signaling)

`Cc1cc(-c2ncc(NC(=O)CCN3CCOCC3)cc2-c2ccc3ncsc3c2)ccc1F` [compound 312, N-(5-(Benzo[d]thiazol-6-yl)-6-(4-fluoro-3-methylphenyl)pyridin-3-yl)-3-morpholinopropanamide] and `CCCC(=O)Nc1cnc(-c2ccc(F)c(C)c2)c(-c2ccc3ncsc3c2)c1` [compound 316, N-(5-(Benzo[d]thiazol-6-yl)-6-(4-fluoro-3-methylphenyl)pyridin-3-yl)butyramide] are within 0.2 log units of each other in pIC50: 5.12 for the first, 5.19 for the second.

First: Cc1cc(-c2ncc(NC(=O)c3ccncc3)cc2-c2ccc3ncsc3c2)ccc1F [compound 314, N-(5-(Benzo[d]thiazol-6-yl)-6-(4-fluoro-3-methylphenyl)pyridin-3-yl)isonicotinamide]
Second: Cc1cc(-c2ncc(NC(=O)c3cccnc3)cc2-c2ccc3ncsc3c2)ccc1F [compound 315, N-(5-(Benzo[d]thiazol-6-yl)-6-(4-fluoro-3-methylphenyl)pyridin-3-yl)nicotinamide]
The pIC50 of the first is 0.86 log units lower: 5.27 for the first, 6.13 for the second.

Going from `Cc1cc(-c2ncc(NC(=O)CCCc3ccncc3)cc2-c2ccc3ncsc3c2)ccc1F` [compound 317, N-(5-(Benzo[d]thiazol-6-yl)-6-(4-fluoro-3-methylphenyl)pyridin-3-yl)-4-(pyridin-4-yl)butanamide] to `Cc1cc(-c2ncc(NCc3cccc(O)c3)cc2-c2ccc3ncsc3c2)ccc1F` [compound 332, 3-(((5-(Benzo[d]thiazol-6-yl)-6-(4-fluoro-3-methylphenyl)pyridin-3-yl)amino)methyl)phenol], the pIC50 rises from 5.26 to 6.51 (1.25 log units). The second is the more potent here.

Going from `Cc1cc(-c2ncc(-c3ccc(C(N)=O)cc3)cc2-c2ccc3ncsc3c2)ccc1F` [compound 318, 4-(5-(Benzo[d]thiazol-6-yl)-6-(4-fluoro-3-methylphenyl)pyridin-3-yl)benzamide] to `Cc1cc(-c2ncc(-c3cccc(O)c3)cc2-c2ccc3ncsc3c2)ccc1F` [compound 343, 3-(5-(Benzo[d]thiazol-6-yl)-6-(4-fluoro-3-methylphenyl)pyridin-3-yl)phenol], the pIC50 falls from 5.88 to 5.58 (0.30 log units). The first is the more potent here.

First: Cc1cc(-c2ncc(N3CCN(C)CC3)cc2-c2ccc3ncsc3c2)ccc1F [compound 319, 6-(2-(4-Fluoro-3-methylphenyl)-5-(4-methylpiperazin-1-yl)pyridin-3-yl)benzo[d]thiazole]
Second: Cc1cc(-c2ncc(NCCCN3CCN(C)CC3)cc2-c2ccc3ncsc3c2)ccc1F [compound 320, 5-(Benzo[d]thiazol-6-yl)-6-(4-fluoro-3-methylphenyl)-N-(3-(4-methylpiperazin-1-yl)propyl)pyridin-3-amine]
The pIC50 of the first is 0.55 log units lower: 4.97 for the first, 5.52 for the second. The second is the more potent here.

First: Cc1cc(-c2ncc(NCc3ccc(Cl)nc3)cc2-c2ccc3ncsc3c2)ccc1F [compound 321, 5-(Benzo[d]thiazol-6-yl)-N-((6-chloropyridin-3-yl)methyl)-6-(4-fluoro-3-methylphenyl)pyridin-3-amine]
Second: Cc1ccc(CNc2cnc(-c3ccc(F)c(C)c3)c(-c3ccc4ncsc4c3)c2)cn1 [compound 334, 5-(Benzo[d]thiazol-6-yl)-6-(4-fluoro-3-methylphenyl)-N-((6-methylpyridin-3-yl)methyl)pyridin-3-amine]
The pIC50 of the first is 0.26 log units lower: 6.17 for the first, 6.43 for the second. The second is the more potent here.

`Cc1cc(-c2ncc(NCc3cnc[nH]3)cc2-c2ccc3ncsc3c2)ccc1F` [compound 322, N-((1H-Imidazol-5-yl)methyl)-5-(benzo[d]thiazol-6-yl)-6-(4-fluoro-3-methylphenyl)pyridin-3-amine] and `Cc1cc(-c2ncc(NCc3cncs3)cc2-c2ccc3ncsc3c2)ccc1F` [compound 327, 5-(Benzo[d]thiazol-6-yl)-6-(4-fluoro-3-methylphenyl)-N-(thiazol-5-ylmethyl)pyridin-3-amine] are within 0.2 log units of each other in pIC50: 6.60 for the first, 6.49 for the second.

`CCc1ncc(CNc2cnc(-c3ccc(F)c(C)c3)c(-c3ccc4ncsc4c3)c2)[nH]1` [compound 323, 5-(Benzo[d]thiazol-6-yl)-N-((2-ethyl-1H-imidazol-5-yl)methyl)-6-(4-fluoro-3-methylphenyl)pyridin-3-amine] and `COc1ccc(CNc2cnc(-c3ccc(F)c(C)c3)c(-c3ccc4ncsc4c3)c2)cn1` [compound 324, 5-(Benzo[d]thiazol-6-yl)-6-(4-fluoro-3-methylphenyl)-N-((6-methoxypyridin-3-yl)methyl)pyridin-3-amine] are within 0.2 log units of each other in pIC50: 6.49 for the first, 6.34 for the second.

Going from `Cc1cc(-c2ncc(NCc3nccs3)cc2-c2ccc3ncsc3c2)ccc1F` [compound 326, 5-(Benzo[d]thiazol-6-yl)-6-(4-fluoro-3-methylphenyl)-N-(thiazol-2-ylmethyl)pyridin-3-amine] to `Cc1cc(-c2ncc(NCc3cccnc3C)cc2-c2ccc3ncsc3c2)ccc1F` [compound 331, 5-(Benzo[d]thiazol-6-yl)-6-(4-fluoro-3-methylphenyl)-N-((2-methylpyridin-3-yl)methyl)pyridin-3-amine], the pIC50 falls from 6.70 to 5.88 (0.82 log units). The first is the more potent here.

Compared with `Cc1cc(-c2ncc(NCc3ccc(-c4cccnc4)nc3)cc2-c2ccc3ncsc3c2)ccc1F` [compound 328, N-([2,3′-Bipyridin]-5-ylmethyl)-5-(benzo[d]thiazol-6-yl)-6-(4-fluoro-3-methylphenyl)pyridin-3-amine], `Cc1cc(-c2ncc(NCc3cccc4cnccc34)cc2-c2ccc3ncsc3c2)ccc1F` [compound 337, 5-(Benzo[d]thiazol-6-yl)-6-(4-fluoro-3-methylphenyl)-N-(isoquinolin-5-ylmethyl)pyridin-3-amine] is 0.72 log units higher in pIC50: 5.60 for the first, 6.32 for the second.

`Cc1cc(-c2ncc(NCc3cnc4[nH]ccc4c3)cc2-c2ccc3ncsc3c2)ccc1F` [compound 329, N-((1H-Pyrrolo[2,3-b]pyridin-5-yl)methyl)-5-(benzo[d]thiazol-6-yl)-6-(4-fluoro-3-methylphenyl)pyridin-3-amine] and `Cc1cc(-c2ncc(NCc3cnc4ccccc4c3)cc2-c2ccc3ncsc3c2)ccc1F` [compound 339, 5-(Benzo[d]thiazol-6-yl)-6-(4-fluoro-3-methylphenyl)-N-(quinolin-3-ylmethyl)pyridin-3-amine] are within 0.2 log units of each other in pIC50: 6.10 for the first, 6.23 for the second.

First: Cc1cc(-c2ncc(NCc3c[nH]c4ncccc34)cc2-c2ccc3ncsc3c2)ccc1F [compound 330, N-((1H-Pyrrolo[2,3-b]pyridin-3-yl)methyl)-5-(benzo[d]thiazol-6-yl)-6-(4-fluoro-3-methylphenyl)pyridin-3-amine]
Second: Cc1cc(-c2ncc(NCc3cccc4cccnc34)cc2-c2ccc3ncsc3c2)ccc1F [compound 336, 5-(Benzo[d]thiazol-6-yl)-6-(4-fluoro-3-methylphenyl)-N-(quinolin-8-ylmethyl)pyridin-3-amine]
The pIC50 of the first is 0.22 log units higher: 6.34 for the first, 6.12 for the second.

First: Cc1cc(-c2ncc(NCc3ccc(O)cc3)cc2-c2ccc3ncsc3c2)ccc1F [compound 333, 4-(((5-(Benzo[d]thiazol-6-yl)-6-(4-fluoro-3-methylphenyl)pyridin-3-yl)amino)methyl)phenol]
Second: CC(=O)Nc1ccc(CNc2cnc(-c3ccc(F)c(C)c3)c(-c3ccc4ncsc4c3)c2)cc1 [compound 338, N-(4-(((5-(Benzo[d]thiazol-6-yl)-6-(4-fluoro-3-methylphenyl)pyridin-3-yl)amino)methyl)phenyl)acetamide]
The pIC50 of the first is 0.37 log units lower: 6.42 for the first, 6.79 for the second. The second is the more potent here.

`Cc1cc(-c2ncc(NCc3cnc4c(c3)ncn4C)cc2-c2ccc3ncsc3c2)ccc1F` [compound 335, 5-(Benzo[d]thiazol-6-yl)-6-(4-fluoro-3-methylphenyl)-N-((3-methyl-3H-imidazo[4,5-b]pyridin-6-yl)methyl)pyridin-3-amine] and `COc1cc(CNc2cnc(-c3ccc(F)c(C)c3)c(-c3ccc4ncsc4c3)c2)ccc1O` [compound 351, 4-(((5-(Benzo[d]thiazol-6-yl)-6-(4-fluoro-3-methylphenyl)pyridin-3-yl)amino)methyl)-2-methoxyphenol] are within 0.2 log units of each other in pIC50: 6.51 for the first, 6.67 for the second.

First: Cc1cc(-c2ncccc2-c2ccc3ncn(C)c(=O)c3c2)ccc1F [compound 340, 6-(2-(4-Fluoro-3-methylphenyl)pyridin-3-yl)-3-methylquinazolin-4(3H)-one]
Second: Cc1cccc(-c2ncccc2-c2ccc3ncn(C)c(=O)c3c2)c1 [compound 341, 3-Methyl-6-(2-(m-tolyl)pyridin-3-yl)quinazolin-4(3H)-one]
The pIC50 of the first is 0.26 log units lower: 6.33 for the first, 6.59 for the second.

Compared with `Cn1cnc2ccc(-c3cccnc3-c3cccc(C4CC4)c3)cc2c1=O` [compound 342, 6-(2-(3-Cyclopropylphenyl)pyridin-3-yl)-3-methylquinazolin-4(3H)-one], `O=c1nc[nH]c2cc(-c3cccnc3-c3cccc(C4CC4)c3)ccc12` [compound 350, 7-(2-(3-cyclopropylphenyl)pyridin-3-yl)quinazolin-4(1H)-one] is 0.52 log units lower in pIC50: 6.98 for the first, 6.46 for the second. The first is the more potent here.

Going from `Cc1cc(-c2ncc(-c3cn[nH]c3)cc2-c2ccc3ncsc3c2)ccc1F` [compound 345, 6-(2-(4-Fluoro-3-methylphenyl)-5-(1H-pyrazol-4-yl)pyridin-3-yl)benzo[d]thiazole] to `Cc1cc(-c2ncc(-c3cccc(S(N)(=O)=O)c3)cc2-c2ccc3ncsc3c2)ccc1F` [compound 347, 3-(5-(Benzo[d]thiazol-6-yl)-6-(4-fluoro-3-methylphenyl)pyridin-3-yl)benzenesulfonamide], the pIC50 rises from 5.32 to 5.83 (0.51 log units). The second is the more potent here.

Compared with `Cc1cc(-c2ncccc2-c2ccc3[nH]cnc(=O)c3c2)ccc1F` [compound 346, 6-(2-(4-Fluoro-3-methylphenyl)pyridin-3-yl)quinazolin-4(1H)-one], `Cc1cc(-c2ncccc2-c2ccc3c(=O)nc[nH]c3c2)ccc1F` [compound 348, 7-(2-(4-Fluoro-3-methylphenyl)pyridin-3-yl)quinazolin-4(1H)-one] is 0.82 log units lower in pIC50: 6.71 for the first, 5.89 for the second. The first is the more potent here.

Going from `Cc1cccc(-c2ncccc2-c2ccc3c(=O)nc[nH]c3c2)c1` [compound 349, 7-(2-(m-Tolyl)pyridin-3-yl)quinazolin-4(1H)-one] to `COc1ccc(CNc2cnc(-c3ccc(F)c(C)c3)c(-c3ccc4ncsc4c3)c2)cc1OCC(N)=O` [compound 352, 2-(5-(((5-(Benzo[d]thiazol-6-yl)-6-(4-fluoro-3-methylphenyl)pyridin-3-yl)amino)methyl)-2-methoxyphenoxy)acetamide], the pIC50 rises from 6.00 to 6.51 (0.51 log units).

For `Cc1cc(-c2ncc(NCc3ccc(N4CCOCC4)cc3)cc2-c2ccc3ncsc3c2)ccc1F` [compound 353, 5-(Benzo[d]thiazol-6-yl)-6-(4-fluoro-3-methylphenyl)-N-(4-morpholinobenzyl)pyridin-3-amine], the pIC50 was 6.16.
